System: 883617-216-R-J1-PDC tumor spheroids, viability
Assay: Anticancer human tumor 883617-216-R-J1-PDC patient-derived bladder carcinoma cell line growth inhibition [PI3K]
Conditions: spheroids with HUVEC and MSC; for IC50: curve of first compound; for viability, T/C: stronger effect = lower value
Summary of the method: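 Targeted small molecules plus PI3K inhibitors, half-log dose series from Cmax (default top 10 microM), were applied to heterotypic spheroids of cancer cells with HUVEC and MSCs. Viability indicated growth inhibition.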
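Further: spheroids exposed to agents for 7 days before the viability read.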

## Cn1cnc2c(F)c(Nc3ccc(Br)cc3Cl)c(C(=O)NOCCO)cc21 + Cc1nc(NC(=O)N2CCCC2C(N)=O)sc1-c1ccnc(C(C)(C)C(F)(F)F)c1
Second compound 0.0316 µM
  IC50: 49.5 nM
Second compound 0.1 µM
  IC50: 22.4 nM
Second compound 0.316 µM
  IC50: < 9.49 nM
Second compound 1 µM
  IC50: < 9.49 nM
Second compound 3.16 µM
  IC50: < 9.49 nM
Second compound 10 µM
  IC50: < 9.49 nM
Second compound 0.0316 µM, first compound 0.00949 µM
  viability, T/C: 64.4%
Second compound 0.0316 µM, first compound 0.03 µM
  viability, T/C: 48.8%
Second compound 0.0316 µM, first compound 0.0949 µM
  viability, T/C: 41.5%
Second compound 0.0316 µM, first compound 0.3 µM
  viability, T/C: 44.2%
Second compound 0.0316 µM, first compound 0.949 µM
  viability, T/C: 30.8%
Second compound 0.0316 µM, first compound 3 µM
  viability, T/C: 19.5%
Second compound 0.1 µM, first compound 0.00949 µM
  viability, T/C: 62.3%
Second compound 0.1 µM, first compound 0.03 µM
  viability, T/C: 45.1%
Second compound 0.1 µM, first compound 0.0949 µM
  viability, T/C: 33.5%
Second compound 0.1 µM, first compound 0.3 µM
  viability, T/C: 27.7%
Second compound 0.1 µM, first compound 0.949 µM
  viability, T/C: 23.2%
Second compound 0.1 µM, first compound 3 µM
  viability, T/C: 15.9%
Second compound 0.316 µM, first compound 0.00949 µM
  viability, T/C: 41.4%
Second compound 0.316 µM, first compound 0.03 µM
  viability, T/C: 27.9%
Second compound 0.316 µM, first compound 0.0949 µM
  viability, T/C: 25.8%
Second compound 0.316 µM, first compound 0.3 µM
  viability, T/C: 20.7%
Second compound 0.316 µM, first compound 0.949 µM
  viability, T/C: 16.8%
Second compound 0.316 µM, first compound 3 µM
  viability, T/C: 9.49%
Second compound 1 µM, first compound 0.00949 µM
  viability, T/C: 18.6%
Second compound 1 µM, first compound 0.03 µM
  viability, T/C: 19%
Second compound 1 µM, first compound 0.0949 µM
  viability, T/C: 15.9%
Second compound 1 µM, first compound 0.3 µM
  viability, T/C: 14%
Second compound 1 µM, first compound 0.949 µM
  viability, T/C: 11.9%
Second compound 1 µM, first compound 3 µM
  viability, T/C: 4.92%
Second compound 3.16 µM, first compound 0.00949 µM
  viability, T/C: 11.2%
Second compound 3.16 µM, first compound 0.03 µM
  viability, T/C: 8.7%
Second compound 3.16 µM, first compound 0.0949 µM
  viability, T/C: 10.1%
Second compound 3.16 µM, first compound 0.3 µM
  viability, T/C: 7.89%
Second compound 3.16 µM, first compound 0.949 µM
  viability, T/C: 4.92%
Second compound 3.16 µM, first compound 3 µM
  viability, T/C: 2.19%
Second compound 10 µM, first compound 0.00949 µM
  viability, T/C: 4.41%
Second compound 10 µM, first compound 0.03 µM
  viability, T/C: 3.98%
Second compound 10 µM, first compound 0.0949 µM
  viability, T/C: 3.69%
Second compound 10 µM, first compound 0.3 µM
  viability, T/C: 3.12%
Second compound 10 µM, first compound 0.949 µM
  viability, T/C: 2.43%
Second compound 10 µM, first compound 3 µM
  viability, T/C: 1.07%

Source: PubChem BioAssay AID1963973 (Molecular Pharmacology Branch, DTP, NCI, 2024)
